Source: PMC10507085, “Pharmacological inhibition of TBK1/IKKε blunts immunopathology in a murine model of SARS-CoV-2 infection” (Nature Communications, 2023)

Columns and labels:
Test in all cases: biochemical
Set-up in all cases: KINOMEscan competition binding, DNA-tagged kinase against immobilised ligand, qPCR read-out
Conditions in all cases: read-out: Percent Control
CDK7 = CDK7 (Homo sapiens, UniProt P50613)
PKMYT1 = PKMYT1 (Homo sapiens, UniProt Q99640)
NEK5 = NEK5 (Homo sapiens, UniProt Q6P3R8)
CDK15 = CDK15 (Homo sapiens, UniProt Q96Q40)
SLK = SLK (Homo sapiens, UniProt Q9H2G2)
PRKG2 = PRKG2 (Homo sapiens, UniProt Q13237)
CDC42BPA = CDC42BPA (Homo sapiens, UniProt Q5VT25)
[1] = target: T1, JAK1(JH1domain-catalytic) (Homo sapiens, UniProt P23458)
T1 construct: JH1 domain catalytic

IKBKB = IKBKB (Homo sapiens, UniProt O14920)
EPHB2 = EPHB2 (Homo sapiens, UniProt P29323)
DDR2 = DDR2 (Homo sapiens, UniProt Q16832)
BMP2K = BMP2K (Homo sapiens, UniProt Q9NSY1)
IRAK1 = IRAK1 (Homo sapiens, UniProt P51617)
SIK2 = SIK2 (Homo sapiens, UniProt Q9H0K1)
PDGFRB = PDGFRB (Homo sapiens, UniProt P09619)
CAMK2D = CAMK2D (Homo sapiens, UniProt Q13557)
ACVR1B = ACVR1B (Homo sapiens, UniProt P36896)
FGR = FGR (Homo sapiens, UniProt P09769)
PIM3 = PIM3 (Homo sapiens, UniProt Q86V86)
MAPKAPK5 = MAPKAPK5 (Homo sapiens, UniProt Q8IW41)
MAPKAPK5, sequence (Q8IW41 whole entry): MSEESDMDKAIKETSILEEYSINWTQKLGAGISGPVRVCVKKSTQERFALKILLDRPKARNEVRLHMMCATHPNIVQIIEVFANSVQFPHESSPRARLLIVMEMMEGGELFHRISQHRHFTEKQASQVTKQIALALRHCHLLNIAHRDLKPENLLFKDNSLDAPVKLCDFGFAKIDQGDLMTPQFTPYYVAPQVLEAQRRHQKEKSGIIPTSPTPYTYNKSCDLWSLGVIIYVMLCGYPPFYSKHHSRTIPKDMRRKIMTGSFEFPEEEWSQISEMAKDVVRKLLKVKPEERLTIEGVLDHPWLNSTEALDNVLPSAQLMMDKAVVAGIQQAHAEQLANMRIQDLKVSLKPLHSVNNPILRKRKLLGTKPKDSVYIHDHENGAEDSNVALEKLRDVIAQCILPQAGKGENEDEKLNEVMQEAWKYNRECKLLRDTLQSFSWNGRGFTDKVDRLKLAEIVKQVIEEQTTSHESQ

ACVR1B, sequence (P36896 whole entry): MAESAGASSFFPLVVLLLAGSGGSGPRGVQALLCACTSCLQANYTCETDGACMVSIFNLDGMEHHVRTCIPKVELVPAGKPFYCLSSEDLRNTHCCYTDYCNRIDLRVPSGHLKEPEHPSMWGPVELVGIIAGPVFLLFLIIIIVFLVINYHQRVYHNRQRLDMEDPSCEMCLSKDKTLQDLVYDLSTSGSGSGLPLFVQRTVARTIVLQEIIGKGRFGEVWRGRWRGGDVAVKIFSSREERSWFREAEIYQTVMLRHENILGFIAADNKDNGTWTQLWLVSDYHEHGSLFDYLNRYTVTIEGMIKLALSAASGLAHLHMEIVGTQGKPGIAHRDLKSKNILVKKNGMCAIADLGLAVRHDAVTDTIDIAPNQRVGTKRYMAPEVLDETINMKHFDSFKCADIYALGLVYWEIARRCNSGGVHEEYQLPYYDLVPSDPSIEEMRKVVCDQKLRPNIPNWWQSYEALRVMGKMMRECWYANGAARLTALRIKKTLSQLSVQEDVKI
IRAK1, sequence (P51617 whole entry): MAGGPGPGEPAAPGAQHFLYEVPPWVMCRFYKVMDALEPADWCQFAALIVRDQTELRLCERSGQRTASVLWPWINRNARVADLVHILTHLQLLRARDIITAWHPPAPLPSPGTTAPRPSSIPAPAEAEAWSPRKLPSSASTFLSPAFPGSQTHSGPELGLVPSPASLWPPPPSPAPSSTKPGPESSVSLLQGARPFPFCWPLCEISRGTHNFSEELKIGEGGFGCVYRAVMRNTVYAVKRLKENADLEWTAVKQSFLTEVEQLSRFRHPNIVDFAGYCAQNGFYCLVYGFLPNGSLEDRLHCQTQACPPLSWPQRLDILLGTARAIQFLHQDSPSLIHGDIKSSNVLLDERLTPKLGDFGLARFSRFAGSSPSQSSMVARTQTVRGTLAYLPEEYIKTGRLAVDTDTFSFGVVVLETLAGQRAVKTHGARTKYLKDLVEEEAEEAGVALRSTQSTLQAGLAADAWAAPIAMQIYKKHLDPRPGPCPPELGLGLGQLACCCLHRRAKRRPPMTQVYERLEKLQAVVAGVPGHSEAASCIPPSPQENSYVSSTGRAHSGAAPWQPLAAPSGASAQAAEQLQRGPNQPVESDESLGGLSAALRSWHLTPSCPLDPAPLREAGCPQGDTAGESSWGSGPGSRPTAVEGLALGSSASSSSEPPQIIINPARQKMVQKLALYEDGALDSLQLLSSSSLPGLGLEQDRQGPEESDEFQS
CAMK2D, sequence (Q13557 whole entry): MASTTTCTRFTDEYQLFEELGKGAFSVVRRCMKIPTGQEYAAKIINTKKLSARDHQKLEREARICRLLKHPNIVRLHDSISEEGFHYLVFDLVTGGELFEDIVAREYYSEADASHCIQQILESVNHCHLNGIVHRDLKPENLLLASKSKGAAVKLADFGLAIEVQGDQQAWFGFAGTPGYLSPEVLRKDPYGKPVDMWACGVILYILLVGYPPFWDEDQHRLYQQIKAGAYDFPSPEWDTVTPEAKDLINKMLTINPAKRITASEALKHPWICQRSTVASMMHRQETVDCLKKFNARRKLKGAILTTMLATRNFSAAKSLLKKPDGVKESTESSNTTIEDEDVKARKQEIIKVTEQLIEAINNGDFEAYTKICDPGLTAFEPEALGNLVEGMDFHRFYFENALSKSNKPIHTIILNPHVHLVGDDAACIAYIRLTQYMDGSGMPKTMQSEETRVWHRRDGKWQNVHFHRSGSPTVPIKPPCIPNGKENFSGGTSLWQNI
PDGFRB, sequence (P09619 whole entry): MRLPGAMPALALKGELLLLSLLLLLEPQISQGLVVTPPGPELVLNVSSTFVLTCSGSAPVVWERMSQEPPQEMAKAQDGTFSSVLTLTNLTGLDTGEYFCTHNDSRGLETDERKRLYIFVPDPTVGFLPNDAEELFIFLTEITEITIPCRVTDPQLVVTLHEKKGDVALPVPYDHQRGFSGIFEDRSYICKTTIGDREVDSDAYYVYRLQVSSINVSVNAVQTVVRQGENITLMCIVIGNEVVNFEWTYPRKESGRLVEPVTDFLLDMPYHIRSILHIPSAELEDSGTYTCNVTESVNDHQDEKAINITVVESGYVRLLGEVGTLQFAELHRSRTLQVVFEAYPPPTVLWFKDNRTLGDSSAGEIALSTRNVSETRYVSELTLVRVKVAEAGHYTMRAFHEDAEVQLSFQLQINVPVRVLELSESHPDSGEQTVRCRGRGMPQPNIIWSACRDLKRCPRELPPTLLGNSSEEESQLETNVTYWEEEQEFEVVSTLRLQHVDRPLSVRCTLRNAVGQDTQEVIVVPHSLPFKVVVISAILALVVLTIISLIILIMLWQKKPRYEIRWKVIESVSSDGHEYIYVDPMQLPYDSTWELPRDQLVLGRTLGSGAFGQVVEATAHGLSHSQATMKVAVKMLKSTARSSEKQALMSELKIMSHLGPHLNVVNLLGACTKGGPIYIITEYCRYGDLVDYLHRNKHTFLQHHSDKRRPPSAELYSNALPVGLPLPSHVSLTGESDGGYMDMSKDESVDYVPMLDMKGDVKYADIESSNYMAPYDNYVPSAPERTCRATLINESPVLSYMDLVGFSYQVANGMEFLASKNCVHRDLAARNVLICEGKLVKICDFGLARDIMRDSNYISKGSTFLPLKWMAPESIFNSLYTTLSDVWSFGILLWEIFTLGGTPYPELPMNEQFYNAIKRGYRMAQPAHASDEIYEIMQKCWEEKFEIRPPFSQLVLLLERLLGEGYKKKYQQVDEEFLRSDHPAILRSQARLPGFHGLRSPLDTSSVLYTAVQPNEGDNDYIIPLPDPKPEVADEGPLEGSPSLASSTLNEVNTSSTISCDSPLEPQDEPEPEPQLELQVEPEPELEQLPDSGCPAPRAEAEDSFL
SLK, sequence (Q9H2G2 whole entry): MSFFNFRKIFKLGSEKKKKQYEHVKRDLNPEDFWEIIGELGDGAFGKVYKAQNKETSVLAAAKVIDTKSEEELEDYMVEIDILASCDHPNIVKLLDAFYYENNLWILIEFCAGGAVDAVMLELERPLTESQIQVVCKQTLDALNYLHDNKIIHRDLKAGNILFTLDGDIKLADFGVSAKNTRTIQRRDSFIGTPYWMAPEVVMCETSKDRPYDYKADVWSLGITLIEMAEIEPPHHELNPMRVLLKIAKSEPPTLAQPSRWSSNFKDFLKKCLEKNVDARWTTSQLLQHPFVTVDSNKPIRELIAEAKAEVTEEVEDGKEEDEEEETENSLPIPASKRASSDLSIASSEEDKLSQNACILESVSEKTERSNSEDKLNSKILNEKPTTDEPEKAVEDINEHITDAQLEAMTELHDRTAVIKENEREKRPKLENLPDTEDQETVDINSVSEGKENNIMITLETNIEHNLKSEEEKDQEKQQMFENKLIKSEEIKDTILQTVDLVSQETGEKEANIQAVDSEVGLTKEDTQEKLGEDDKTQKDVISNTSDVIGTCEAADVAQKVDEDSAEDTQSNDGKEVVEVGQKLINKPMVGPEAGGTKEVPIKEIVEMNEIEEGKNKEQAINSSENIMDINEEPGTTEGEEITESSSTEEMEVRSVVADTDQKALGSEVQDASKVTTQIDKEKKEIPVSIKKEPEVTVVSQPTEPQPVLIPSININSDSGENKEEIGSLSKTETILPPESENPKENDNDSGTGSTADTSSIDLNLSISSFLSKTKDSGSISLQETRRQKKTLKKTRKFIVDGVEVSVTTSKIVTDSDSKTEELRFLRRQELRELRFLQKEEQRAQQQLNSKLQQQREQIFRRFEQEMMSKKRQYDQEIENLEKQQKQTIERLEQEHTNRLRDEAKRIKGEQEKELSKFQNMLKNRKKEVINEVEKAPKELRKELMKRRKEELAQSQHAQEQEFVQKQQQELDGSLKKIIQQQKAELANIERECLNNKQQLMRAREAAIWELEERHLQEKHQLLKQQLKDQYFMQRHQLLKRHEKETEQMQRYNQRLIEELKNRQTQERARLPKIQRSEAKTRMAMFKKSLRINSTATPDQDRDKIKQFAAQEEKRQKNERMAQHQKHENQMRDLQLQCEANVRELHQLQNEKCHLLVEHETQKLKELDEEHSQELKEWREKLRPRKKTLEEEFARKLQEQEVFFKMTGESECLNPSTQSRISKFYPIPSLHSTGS
PKMYT1, sequence (Q99640 whole entry): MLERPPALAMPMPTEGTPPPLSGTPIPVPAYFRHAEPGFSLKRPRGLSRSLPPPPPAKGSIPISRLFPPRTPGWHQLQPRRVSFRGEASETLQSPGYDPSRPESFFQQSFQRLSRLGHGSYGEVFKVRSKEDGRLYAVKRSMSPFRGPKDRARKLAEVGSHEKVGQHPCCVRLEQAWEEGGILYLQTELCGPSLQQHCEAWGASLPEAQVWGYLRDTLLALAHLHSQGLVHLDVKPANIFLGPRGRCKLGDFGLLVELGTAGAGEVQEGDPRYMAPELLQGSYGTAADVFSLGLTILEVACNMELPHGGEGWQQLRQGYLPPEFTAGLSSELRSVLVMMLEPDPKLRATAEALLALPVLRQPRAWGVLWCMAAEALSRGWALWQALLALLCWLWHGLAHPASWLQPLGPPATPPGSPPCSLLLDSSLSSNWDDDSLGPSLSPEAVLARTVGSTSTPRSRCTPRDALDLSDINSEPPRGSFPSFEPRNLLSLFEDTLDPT

Oc1ccc(C2=Cc3ccc(O)cc3OC2)cc1 [compound 1, idronoxil]
remaining binding at 10 µM (CDK7): 67% | remaining binding at 10 µM (PKMYT1): 78% | remaining binding at 10 µM (NEK5): 89% | remaining binding at 10 µM (CDK15): 99% | remaining binding at 10 µM (SLK): 73% | remaining binding at 10 µM (PRKG2): 71% | remaining binding at 10 µM (CDC42BPA): 98% | remaining binding at 10 µM [1]: 93% | remaining binding at 10 µM (IKBKB): 73% | remaining binding at 10 µM (EPHB2): 86% | remaining binding at 10 µM (DDR2): 100% | remaining binding at 10 µM (BMP2K): 86% | remaining binding at 10 µM (IRAK1): 80% | remaining binding at 10 µM (SIK2): 87% | remaining binding at 10 µM (PDGFRB): 18% | remaining binding at 10 µM (CAMK2D): 84% | remaining binding at 10 µM (ACVR1B): 87% | remaining binding at 10 µM (FGR): 74% | remaining binding at 10 µM (PIM3): 40% | remaining binding at 10 µM (MAPKAPK5): 75%
